Where two headings read alike, the source gives them in different places.
How the values were obtained:
[1] = Apparent lipophilicity from reverse-phase HPLC at pH 7.4; format: physicochemical; conditions: not told
Excerpt: (b) Extrapolated reverse phase capacity factors in MOPS buffer at pH 7.4.

5-HT-3 receptor [2] = molecular target: T1, 5-HT-3 receptor (Rattus norvegicus, UniProt P35563)
T1 sequence (P35563 24-483): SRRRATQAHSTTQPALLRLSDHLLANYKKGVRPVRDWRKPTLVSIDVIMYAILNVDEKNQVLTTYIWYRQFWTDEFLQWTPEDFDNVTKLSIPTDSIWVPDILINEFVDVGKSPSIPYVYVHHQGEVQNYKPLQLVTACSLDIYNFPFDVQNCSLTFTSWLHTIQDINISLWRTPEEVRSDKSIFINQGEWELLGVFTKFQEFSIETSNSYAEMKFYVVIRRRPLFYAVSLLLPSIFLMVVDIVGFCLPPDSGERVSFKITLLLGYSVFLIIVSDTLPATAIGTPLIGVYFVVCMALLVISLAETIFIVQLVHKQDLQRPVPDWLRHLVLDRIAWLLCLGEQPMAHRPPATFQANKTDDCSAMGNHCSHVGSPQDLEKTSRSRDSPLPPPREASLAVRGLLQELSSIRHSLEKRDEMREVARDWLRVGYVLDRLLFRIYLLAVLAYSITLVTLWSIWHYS
Description: Evaluation of the compounds of the present invention was performed by incubating the radiolabeled agent with tissue homogenates known to contain these receptors. By inhibiting the binding with various concentrations of competing ligands the relative potencies of unlabeled analogs were determined. The apparent lipophilicities of the compounds of the invention were estimated from the retention times in reverse-phase HPLC at pH 7.4.

5-HT-3 receptor [3] = conditions: literature, cited from earlier work
emesis = conditions: literature; cited from earlier work
drug-induced anxiety = conditions: literature; cited from earlier work
animal behavioral models = conditions: literature; cited from earlier work
5-HT-3 receptor [4] = molecular target: T1, 5-HT-3 receptor; format: binding; parameters: from tissue; host or cells: rat entorhinal cortex homogenate / membranes; conditions: rat entorhinal cortex
Excerpt: In all FIGS. 1-3, triangles represent total binding, open circles represent non-specific binding, and darkened circles represent specific binding.

[5] = extrapolated reverse phase capacity factors in MOPS buffer, read-out: log Papp (apparent lipophilicity)
[6] = Ki, displacement of 0.64 nM [^125 I]-4 binding, Table 3, rat entorhinal cortex homogenate, HEPES buffer, nine concentrations 0.3 to 300 nM, triplicates

SMILES	chromatographic logD [1, 5]	further results
O=C(N[C@@H]1CN2CCC1CC2)c1cc(Cl)cc(I)c1OCCF [TDP 1056]	1.95	
c1ccc2nc(N3CCNCC3)ccc2c1 [quipazine]		Ki (5-HT-3 receptor [2]; [6]): 0.48 nM
COc1cc(N)c(Cl)cc1C(=O)N[C@@H]1CN2CCC1CC2 [(S)-zacopride, 5-chloro-4-amino-2-methoxy-N-(3-quinuclidinyl)benzamide]		Ki (5-HT-3 receptor [3]; (S)-form of zacopride): 0.3 nM; antiemetic activity (emesis): effective antiemetic agent; block of drug-induced anxiety (drug-induced anxiety): inactive; Ki (5-HT-3 receptor [2]; [6]): 0.38 nM
O=C(N[C@@H]1CN2CCC1CC2)c1cc(I)ccc1OCCCF [TDP 921]	2.44	
COc1ccc(I)cc1C(=O)N[C@@H]1CN2CCC1CC2 [TDP 915]	2.15	
CCOc1c(I)cc(Cl)cc1C(=O)N[C@@H]1CN2CCC1CC2 [TDP 1059]	2.47	
C=CCOc1c(I)cc(Cl)cc1C(=O)N[C@@H]1CN2CCC1CC2 [TDP 1046]	2.63	
C=CCOc1ccc(I)cc1C(=O)N[C@@H]1CN2CCC1CC2 [TDP 918]	2.76	
COc1ccc(Br)cc1C(=O)N[C@@H]1CN2CCC1CC2 [TDP 922]	2.02	
COc1cc(I)cc(C(=O)N[C@H]2CN3CCC2CC3)c1OC [TDP 991, (R)-N-[3-1-Azabicyclo [2.2.2.]octyl]-5-iodo-2,3-dimethoxy-benzamide]	1.87	Ki (5-HT-3 receptor [2]; [6]): 19 nM
CCCOc1c(I)cc(Cl)cc1C(=O)N[C@@H]1CN2CCC1CC2 [TDP 1065]	2.7	
COc1cc(N)c(Cl)cc1C(=O)N[C@H]1CN2CCC1CC2 [(R)-zacopride, 5-chloro-4-amino-2-methoxy-N-(3-quinuclidinyl)benzamide]		affinity for the 5-HT-3 receptor relative to (S)-zacopride (5-HT-3 receptor [3]): ten times lower affinity; cognitive-enhancing properties (animal behavioral models): shows cognitive-enhancing properties; block of drug-induced anxiety (drug-induced anxiety): able to block drug-induced anxiety
CCOc1ccc(I)cc1C(=O)N[C@@H]1CN2CCC1CC2 [TDP 916]	2.38	
CC(C)Oc1ccc(I)cc1C(=O)N[C@@H]1CN2CCC1CC2 [TDP 919]	2.52	
CCOc1c(OC)cc(I)cc1C(=O)N[C@@H]1CN2CCC1CC2 [TDP 1022]	2.19	
COc1ccc(F)cc1C(=O)N[C@@H]1CN2CCC1CC2 [TDP 1087]	1.34	

SMILES	chromatographic logD [1, 5]	further results
O=C(N[C@@H]1CN2CCC1CC2)c1cc(I)ccc1OCCF [TDP 920]	2.15	
CC(C)Oc1c(I)cc(Cl)cc1C(=O)N[C@@H]1CN2CCC1CC2 [TDP 1062]	2.45	
C#CCOc1c(I)cc(Cl)cc1C(=O)N[C@@H]1CN2CCC1CC2 [TDP 1053]	2.57	
COc1cc(Br)cc(C(=O)N[C@@H]2CN3CCC2CC3)c1OC [TDP 923]	1.74	
CN1[C@@H]2CC[C@H]1C[C@@H](OC(=O)c1cc(Cl)cc(Cl)c1)C2 [bemestron]		Ki (5-HT-3 receptor [2]; [6]): 18.3 nM
CCCOc1ccc(I)cc1C(=O)N[C@@H]1CN2CCC1CC2 [TDP 9l7]	2.81	
O=C(N[C@@H]1CN2CCC1CC2)c1cc(Cl)cc(I)c1OCCCF [TDP 1050]	2.38	
CCN1CCC[C@H]1CNC(=O)c1cc(I)cc(OC)c1OC [epidepride]		Ki (5-HT-3 receptor [2]): 1040 nM
COc1cc(I)cc(C(=O)N[C@@H]2CN3CCC2CC3)c1OC [TDP 960]	1.87	Ki (5-HT-3 receptor [2]; [6]): 1.35 nM
CCOc1cc(Br)cc(C(=O)N[C@@H]2CN3CCC2CC3)c1OC [TDP 924]	2.14	
COc1c(OCCF)cc(Cl)cc1C(=O)N[C@@H]1CN2CCC1CC2 [TDP 999]	1.7	
COc1cc(Cl)cc(C(=O)N[C@@H]2CN3CCC2CC3)c1OC/C=C/I [TDP 984]	2.58	
COc1cc(Cl)cc(C(=O)N[C@@H]2CN3CCC2CC3)c1OCCF [TDP 994]	1.58	
COc1c(I)cc(Cl)cc1C(=O)N[C@@H]1CN2CCC1CC2 [TDP 1040]		chromatographic logD [1]: 2.34
COc1cc([125I])cc(C(=O)N[C@@H]2CN3CCC2CC3)c1OC [[^125 I]-4, (S)-N-[3-(1-azabicyclo[2.2.2]octyl)]-2,3-dimethoxy-5-[^125 I]iodobenzamide]		Kd (5-HT-3 receptor [4]): 1.5 nM
